# From patent US20110212108A1, “NEUREGULIN/ERBB SIGNALING AND INTEGRIN” (THE REGENTS OF THE UNIVERSITY OF CALIFORNIA, priority 2008, published 2011)
# Where a chain is given by its changes, count along the chain named. Entries after “also recorded” stand apart in the source; their conditions may differ.
# B1: WT NRG1α (175-241): wild type human neuregulin 1 fragment, residues 175-241 of SEQ ID NO:4 (SEQ ID NO:5), entire EGF-like motif and α domain (protein)
# chain: GTSHLVKCAEKEKTFCVNGGECFMVKDLSNPSRYLCKCQPGFTGARCTENVPMKVQNQEKAEELYQK
# modifications: integrin-binding site within human neuregulin, residues 175-241of human neuregulin 1alpha, long version
# B2: 3KE (175-241): NRG1α (175-241) with Lys181/Lys185/Lys187 mutated to Glu, SEQ ID NO:6 (3KE, long version) (protein)
# chain: B1 chain with K7E, K11E, K13E
# modifications: integrin-binding site within human neuregulin, residues 175-241of human neuregulin 1alpha, long version, 3KE mutant
# Assays:
# B16F10 melanoma cells = assay: Western blotting of signaling in B16F10 cells; type: cell-based, mouse; details: 10 ng/ml
# Procedure: FIG. 11. […] Cells were serum starved and stimulated with 10 ng/ml wt or mutant NRG1 (175-222). Cell lysates were analyzed by western blotting.
# (§1) Cell proliferation: cells were starved by culturing DMEM with low-level FCS (e.g., 0.4%) overnight and then treated with the wt or mutant NRG1 (175-222) (up to 100 ng/ml). The cells were harvested in 15 min to 6 h after stimulation and cell lysates analyzed by western blotting with antibodies specific to signaling molecules. Alternatively, cells were cultured for 24-48 h after stimulation for testing proliferation or cell viability by MTS assays. Statistical analysis and calculation of kinetic constants were performed using Prism software (Graphpad).
# (§2) Signaling: The levels of cell proliferation were measured by MTS assays and the kinetic data were analyzed by using Prism software (Graphpad). Melanoma cells were cultured in the presence of wt or mutant NRG1 (175-222), and the levels of ErbB2 and B3 phosphorylation, MAP kinase activation, or activation of other signaling molecules in the cell lysates were monitored by immunoprecipitating ErbB2 and B3 from the lysates and detecting tyrosine phosphorylation by western blotting with anti-phosphotyrosine antibodies (the IP-Western method) for ErbB2 and B3. Alternatively, anti-phospho ErbB2 or B3 antibodies (commercially available) and anti-phospho ERK1/2 antibodies were used.
# M21 human melanoma cells = assay: Western blotting of signaling in M21 cells; type: cell-based; details: 10 ng/ml; for ERK1/2 activation in M21 cells / ErbB3 phosphorylation in M21 cells: 15 min
# Procedure: FIG. 9. Effect of the 3KE (175-222) mutation on ErbB3 phosphorylation, ERK1/2 activation, and cyclin D1 levels in M21 human melanoma cells. Cells were cultured in DMEM+1% FBS medium for 24 h, and then treated with 3KE or WT NRG1 (175-222) (10 ng/ml, if concentrations were not indicated) for 15 min (if time is not specified). Cell lysates were analyzed by Western blotting.
# as §1, §2
# [1] = test system: Human MCF-7 breast cancer cells; assay: MCF-7 cell proliferation, MTS assay; type: cell-based; details: serum-starved overnight, cultured 48 h, P=0.0018
# Procedure: FIG. 12. Effect of wt and 3KE NRG1 (175-222) on the proliferation of MCF-7 cells. Human MCF-7 breast cancer cells were serum-starved overnight and cultured 48 h with wt or mutant GST-NRG1 (175-222). Cell proliferation was measured by using MTS assays. […] P=0.0018 by 2-way ANOVA.
# as §1
# [2] = test system: CHO cells that express recombinant human ErbB4 (ErbB4-CHO); assay: ERK1/2 activation in ErbB4-CHO cells, Western blotting; type: cell-based, Chinese hamster; details: serum-starved
# Procedure: FIG. 14. […] ErbB4 was stably expressed in CHO cells (designated ErbB4-CHO cells). ErbB4 was detected in a cell lysate of ErbB4-CHO cells by western blotting (top). Serum-starved CHO or ErbB4-CHO cells were stimulated with wt NRG1 (175-222) or the 3KE (175-222) mutant and ERK1/2 activation was measured by Western blotting.
# CHO cells express endogenous ErbB2 and ErbB3, but no ErbB4. CHO cells that express ErbB4 were generated by transfecting ErbB4 expression vector (designated ErbB4-CHO). […] It is therefore believed that the direct binding of integrin […] the Ras-MAP kinase pathway in ErbB4-CHO cells.
# Transfection: ErbB4 stably transfected cells were generated by transfecting ErbB4 expression plasmid pCDNA3.1 (with a neo gene) to cells and selected for G418 resistance. Western blotting analysis were performed as described above, and mutagenesis was carried out by the Quick-Change method.
# [3] = test system: mock-transfected K562 cells; assay: Cell adhesion assay, mock-transfected K562 cells; type: cell-based, human
# Procedure: FIG. 5. […] Adhesion assays was performed using αvβ3-K562 (left) or mock transfected cells (right) as described herein. The data is shown as means+/−SEM of triplicate experiments.
# Cell adhesion and soluble integrin binding assays were performed as described previously (Mori, et al., 2008). NRG1α (175-241) was immobilized to wells of 96-well microtiter plate overnight at 4° C. in 0.1 M carbonate buffer, pH 2 9.4. Remaining protein binding sites were blocked by incubating with 200 μl of 0.1% BSA in PBS for 60 min at room temperature. Wells were then incubated with soluble integrin αvβ3 in 50 μl in Hepes-Tyrode's buffer supplemented with 1 mM Mn2+ at room temperature for 60 min. After rinsing the wells with the same buffer, bound integrins were determined by horseradish peroxidase (HRP)-conjugated anti-His tag mouse IgG and substrate 3,3′,5,5′-tetramethylbenzidine of HRP.
# MCF-7 cells = assay: Western blot analysis of NRG1 signaling in MCF-7 cells; type: cell-based, human; details: 2.5 nM
# Procedure: FIG. 22. Effect of the 3KE mutation on NRG1 signaling. The 3KE mutant of NRG1α (175-241) is defective in inducing ErbB3 phosphorylation, AKT activation and ERK1/2 activation. MCF-7 cells were serum-starved overnight and stimulated with 2.5 nM WT and the 3KE mutant of NRG1α (175-241) at indicated time points. Cell lysates were analyzed by western blotting. […] Data are shown with signals at time 0 as 1.
# MCF-7 cells grown to confluence were serum-starved in serum-free medium overnight, and then treated with WT or 3KE mutant NRG1α (175-241) (2.5 nM) for 5 min to 6 h at 37° C. Cells were washed with ice-cold PBS once, and lysed with the lysis buffer (20 mM HEPES (pH 7.4), 100 mM NaCl, 10% Glycerol, 1% NP-40, 1 mM MgCl2, 5 mM EDTA, 0.5% Triton X-100, 1 mM phenylmethylsulfonyl fluoride, 20 mM NaF, 1 mM Na3VO4, protease inhibitor cocktail (Sigma-Aldrich)). Protein concentrations in the cell lysates were determined using BCA protein assay (Pierce). Equal amounts of cell proteins were analyzed by SDS-PAGE and transferred onto 0.45 μm pore-size polyvinylidene fluoride membrane (Milipore, Birellica, Mass.). The membrane was incubated with primary antibodies, then HRP-conjugated secondary antibody and enhanced chemiluminescence detection reagents (Pierce).
Molecule,D1 cyclin levels in B16F10 cells (B16F10 melanoma cells),ERK1/2 activation in B16F10 cells (B16F10 melanoma cells),cyclin D1 levels in M21 cells (M21 human melanoma cells),ERK1/2 activation in M21 cells (M21 human melanoma cells),ErbB3 phosphorylation in M21 cells (M21 human melanoma cells),Induction of proliferation of MCF-7 cells [1],ERK1/2 activation in ErbB4-CHO cells [2],AKT activation in B16F10 cells (B16F10 melanoma cells),ERK1/2 activation in M21 cells (M21 human melanoma cells; listed as Wt NRG1 (175-222)),Adhesion of mock-transfected K562 cells to the immobilized protein [3],ERK1/2 activation in ErbB4-CHO cells ([2]; listed as wt NRG (175-222)),AKT activation (phosphorylation) in MCF-7 cells (MCF-7 cells),ERK1/2 activation (phosphorylation) in MCF-7 cells (MCF-7 cells),ErbB3 phosphorylation in MCF-7 cells (MCF-7 cells)
"3KE (175-222): NRG1 (175-222) with Lys181/Lys185/Lys187 mutated to Glu; GTSHLVECAEEEETFCVNGGECFMVKDLSNPSRYLCKCQPGFTGARCT (SEQ ID NO:11) (integrin-binding site within human neuregulin, 3KE mutant, short version)",suppressed D1 cyclin levels very rapidly,did not induce them,suppressed,did not induce the level of ERK1/2 activation; also recorded: suppressed ERK1/2 activation,did not induced ErbB3 phosphorylation,did not,activated ERKI/2; also recorded: enhanced ERK1/2 activation,,,,,,,
"wt NRG1 (175-222): wild type human neuregulin 1 fragment, EGF-like domain, residues 175-222 of SEQ ID NO:4 (SEQ ID NO:3) (GTSHLVKCAEKEKTFCVNGGECFMVKDLSNPSRYLCKCQPGFTGARCT; integrin-binding site within human neuregulin 1 EGF-like region and portion of alpha domain, residues 175-222 of human neuregulin 1 alpha) [reference compound]",,induced,,enhanced the level of ERK1/2 activation,induced ErbB3 phosphorylation,induced cell proliferation,suppressed ERK1/2,induced,induced,did not,suppressed,,,
B1,,,,,,,,,,did not,,markedly induced phosphorylation,markedly induced phosphorylation,markedly induced phosphorylation
B2,,,,,,,,,,,,little or no AKT activation,much lower levels than WT NRG1α (175-241); also recorded: only weakly induced phosphorylation,much lower levels than WT NRG1α (175-241); also recorded: only weakly induced phosphorylation
